Target: T1, urease (from jack beans) (Canavalia ensiformis, UniProt P07374)
T1 construct: solid urease (from jack beans); lyophilized 5 U/mg for urea assay in serum; purchased Merck article No. 4194753; host or cells: jack beans (natural source)
Type: biochemical
Settings: comparison of inventive with comparative examples, table 1
Method: To evaluate the odor-inhibiting effect of the compositions of the present invention, the inhibition of the activity of urease in the formation of ammonia from urea is determined. The determination is carried out at room temperature. 2 g of the substance to be tested (superabsorbent, composition according to the present invention) are weighed into a 100 ml Erlenmeyer flask. 30 mg of solid urease (from jack beans; lyophilized 5 U/mg for urea assay in serum; Merck, article No. 4194753) is weighed into a 100 ml glass beaker. 50 ml of 0.9% sodium chloride solution in urea (8.56 g/L) are added to the urease. The entire contents of the glass beaker are poured swiftly onto the sample in the Erlenmeyer flask, a diffusion tubelet (Dräger Röhrchen, ammonia 20/a-D, 20-1500 ppm*h, order No. 8101301) is as intended broken open, inserted into a rubber stopper which fits the Erlenmeyer flask and the Erlenmeyer flask is sealed with the stopper such that the open end of the diffusion tubelet points inward. […] The measurement is in each case carried out as a duplicate determination, and the result reported is the average between the two readings which has been rounded to the nearest whole number.

T1 sequence (P07374 whole entry, looked up): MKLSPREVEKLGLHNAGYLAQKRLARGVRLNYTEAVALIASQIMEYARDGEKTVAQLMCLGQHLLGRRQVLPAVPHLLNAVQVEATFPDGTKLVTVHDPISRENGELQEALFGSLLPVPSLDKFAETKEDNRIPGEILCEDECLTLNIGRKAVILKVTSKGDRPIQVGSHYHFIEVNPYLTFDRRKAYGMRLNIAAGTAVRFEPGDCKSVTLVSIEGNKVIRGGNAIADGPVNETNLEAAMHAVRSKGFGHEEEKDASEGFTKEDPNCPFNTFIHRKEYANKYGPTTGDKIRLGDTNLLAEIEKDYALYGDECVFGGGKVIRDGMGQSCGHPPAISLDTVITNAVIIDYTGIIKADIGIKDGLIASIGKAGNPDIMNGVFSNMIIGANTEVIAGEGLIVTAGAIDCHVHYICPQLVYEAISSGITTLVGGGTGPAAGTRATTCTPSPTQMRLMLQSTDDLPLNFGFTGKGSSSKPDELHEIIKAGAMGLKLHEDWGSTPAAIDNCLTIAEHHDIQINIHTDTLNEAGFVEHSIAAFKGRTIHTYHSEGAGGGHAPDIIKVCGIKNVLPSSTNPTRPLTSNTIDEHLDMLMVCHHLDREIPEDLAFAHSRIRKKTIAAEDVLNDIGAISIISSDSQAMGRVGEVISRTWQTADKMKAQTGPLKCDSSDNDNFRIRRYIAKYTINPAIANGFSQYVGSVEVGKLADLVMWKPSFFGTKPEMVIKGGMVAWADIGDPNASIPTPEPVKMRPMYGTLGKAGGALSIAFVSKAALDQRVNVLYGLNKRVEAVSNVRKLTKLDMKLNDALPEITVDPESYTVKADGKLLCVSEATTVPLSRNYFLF

## O=CC(=O)O [glyoxylic acid]
  odor-inhibiting effect (in words): demonstrates an odor-inhibiting effect
